Assay results taken from PubChem BioAssay AID1918996 (Molecular Pharmacology Branch, DTP, NCI, 2023).
Blank lines part the entries; values can stand above or below the compound they belong to.

System: 349418-098-R-PDC complex spheroid growth
Assay: Anticancer human tumor 349418-098-R-PDC patient-derived lung adenocarcinoma cell line growth inhibition [AhR]
Conditions: for IC50: curve of first compound; for viability, T/C: stronger effect = lower value
Summary of the method: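 Complex tumor spheroids co-cultured with HUVEC and human MSC stroma; AhR antagonists tested in combination with standard-of-care and investigational agents. Top concentration at or near clinical Cmax (else 10 microM), half-log dilutions; growth expressed as percent test/control.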

[1] = second compound 0.1 µM, first compound 0.00949 µM
[2] = second compound 0.1 µM, first compound 0.03 µM
[3] = second compound 0.1 µM, first compound 0.0949 µM
[4] = second compound 0.1 µM, first compound 0.3 µM
[5] = second compound 0.1 µM, first compound 0.949 µM
[6] = second compound 0.1 µM, first compound 3 µM
[7] = second compound 0.316 µM, first compound 0.00949 µM
[8] = second compound 0.316 µM, first compound 0.03 µM
[9] = second compound 0.316 µM, first compound 0.0949 µM
[10] = second compound 0.316 µM, first compound 0.3 µM
[11] = second compound 0.316 µM, first compound 0.949 µM
[12] = second compound 0.316 µM, first compound 3 µM
[13] = second compound 1 µM, first compound 0.00949 µM
[14] = second compound 1 µM, first compound 0.03 µM
[15] = second compound 1 µM, first compound 0.0949 µM
[16] = second compound 1 µM, first compound 0.3 µM
[17] = second compound 1 µM, first compound 0.949 µM
[18] = second compound 1 µM, first compound 3 µM
[19] = second compound 3.16 µM, first compound 0.00949 µM
[20] = second compound 3.16 µM, first compound 0.03 µM
[21] = second compound 3.16 µM, first compound 0.0949 µM
[22] = second compound 3.16 µM, first compound 0.3 µM
[23] = second compound 3.16 µM, first compound 0.949 µM
[24] = second compound 3.16 µM, first compound 3 µM
[25] = second compound 10 µM, first compound 0.00949 µM
[26] = second compound 10 µM, first compound 0.03 µM
[27] = second compound 10 µM, first compound 0.0949 µM
[28] = second compound 10 µM, first compound 0.3 µM
[29] = second compound 10 µM, first compound 0.949 µM
[30] = second compound 10 µM, first compound 3 µM
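Further: spheroids exposed to agents for seven days before luminescence viability read.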
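Wherever viability, T/C is given: spheroids also contain HUVEC endothelial cells and human MSC stroma.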

- IC50 (second compound 0.1 µM): 17.6 nM
- IC50 (second compound 0.316 µM): < 9.49 nM
- IC50 (second compound 1 µM): < 9.49 nM
- IC50 (second compound 3.16 µM): < 9.49 nM
- IC50 (second compound 10 µM): < 9.49 nM
SMILES: O=C(C=Cn1cnc(-c2cc(C(F)(F)F)cc(C(F)(F)F)c2)n1)NNc1cnccn1 + Cc1ccccc1N=Nc1ccc(NC(=O)c2ccnn2C)c(C)c1
- viability, T/C [1]: 67.2%
- viability, T/C [2]: 35.2%
- viability, T/C [3]: 17.2%
- viability, T/C [4]: 11.2%
- viability, T/C [5]: 9.1%
- viability, T/C [6]: 7.11%
- viability, T/C [7]: 37.7%
- viability, T/C [8]: 25.4%
- viability, T/C [9]: 16.2%
- viability, T/C [10]: 12.2%
- viability, T/C [11]: 10.2%
- viability, T/C [12]: 5.73%
- viability, T/C [13]: 37.8%
- viability, T/C [14]: 29.9%
- viability, T/C [15]: 19.4%
- viability, T/C [16]: 11.9%
- viability, T/C [17]: 8.42%
- viability, T/C [18]: 5.99%
- viability, T/C [19]: 47.9%
- viability, T/C [20]: 33.7%
- viability, T/C [21]: 16.9%
- viability, T/C [22]: 11.4%
- viability, T/C [23]: 8.44%
- viability, T/C [24]: 7.46%
- viability, T/C [25]: 34.6%
- viability, T/C [26]: 22.8%
- viability, T/C [27]: 18.5%
- viability, T/C [28]: 13.8%
- viability, T/C [29]: 9.78%
- viability, T/C [30]: 7.95%

- IC50 (second compound 0.1 µM): < 31.6 nM
- IC50 (second compound 0.316 µM): < 31.6 nM
- IC50 (second compound 1 µM): < 31.6 nM
- IC50 (second compound 3.16 µM): < 31.6 nM
- IC50 (second compound 10 µM): < 31.6 nM
SMILES: COc1cccc2c1C(=O)c1c(O)c3c(c(O)c1C2=O)CC(O)(C(=O)CO)CC3OC1CC(N)C(O)C(C)O1 (stereo not given) + Cc1ccccc1N=Nc1ccc(NC(=O)c2ccnn2C)c(C)c1
- viability, T/C (second compound 0.1 µM, first compound 0.0316 µM): 25.2%
- viability, T/C (second compound 0.1 µM, first compound 0.1 µM): 19%
- viability, T/C (second compound 0.1 µM, first compound 0.316 µM): 5.76%
- viability, T/C (second compound 0.1 µM, first compound 1 µM): 0.44%
- viability, T/C (second compound 0.1 µM, first compound 3.16 µM): 4.06%
- viability, T/C (second compound 0.1 µM, first compound 10 µM): 7.47%
- viability, T/C (second compound 0.316 µM, first compound 0.0316 µM): 21.5%
- viability, T/C (second compound 0.316 µM, first compound 0.1 µM): 17.8%
- viability, T/C (second compound 0.316 µM, first compound 0.316 µM): 5.6%
- viability, T/C (second compound 0.316 µM, first compound 1 µM): 1.97%
- viability, T/C (second compound 0.316 µM, first compound 3.16 µM): 4.18%
- viability, T/C (second compound 0.316 µM, first compound 10 µM): 7.15%
- viability, T/C (second compound 1 µM, first compound 0.0316 µM): 24.3%
- viability, T/C (second compound 1 µM, first compound 0.1 µM): 19.2%
- viability, T/C (second compound 1 µM, first compound 0.316 µM): 6.34%
- viability, T/C (second compound 1 µM, first compound 1 µM): 0.81%
- viability, T/C (second compound 1 µM, first compound 3.16 µM): 4.84%
- viability, T/C (second compound 1 µM, first compound 10 µM): 6.54%
- viability, T/C (second compound 3.16 µM, first compound 0.0316 µM): 23.6%
- viability, T/C (second compound 3.16 µM, first compound 0.1 µM): 18%
- viability, T/C (second compound 3.16 µM, first compound 0.316 µM): 6.45%
- viability, T/C (second compound 3.16 µM, first compound 1 µM): 0.66%
- viability, T/C (second compound 3.16 µM, first compound 3.16 µM): 4.34%
- viability, T/C (second compound 3.16 µM, first compound 10 µM): 6.09%
- viability, T/C (second compound 10 µM, first compound 0.0316 µM): 20.4%
- viability, T/C (second compound 10 µM, first compound 0.1 µM): 15.6%
- viability, T/C (second compound 10 µM, first compound 0.316 µM): 4.32%
- viability, T/C (second compound 10 µM, first compound 1 µM): 1.12%
- viability, T/C (second compound 10 µM, first compound 3.16 µM): 3.09%
- viability, T/C (second compound 10 µM, first compound 10 µM): 7.07%

- IC50 (second compound 0.1 µM): 61.5 nM
- IC50 (second compound 0.316 µM): 78.7 nM
- IC50 (second compound 1 µM): 50.2 nM
- IC50 (second compound 3.16 µM): < 9.49 nM
- IC50 (second compound 10 µM): < 9.49 nM
SMILES: O=C(C=Cn1cnc(-c2cc(C(F)(F)F)cc(C(F)(F)F)c2)n1)NNc1cnccn1 + Cc1cncc(-c2nc(NCCc3c[nH]c4ccccc34)c3ncn(C(C)C)c3n2)c1
- viability, T/C [1]: 109%
- viability, T/C [2]: 76.7%
- viability, T/C [3]: 34.4%
- viability, T/C [4]: 10.9%
- viability, T/C [5]: 7.84%
- viability, T/C [6]: 4.75%
- viability, T/C [7]: 103%
- viability, T/C [8]: 89.4%
- viability, T/C [9]: 42.3%
- viability, T/C [10]: 11.7%
- viability, T/C [11]: 7.07%
- viability, T/C [12]: 4.9%
- viability, T/C [13]: 95.8%
- viability, T/C [14]: 69.8%
- viability, T/C [15]: 25.5%
- viability, T/C [16]: 9.9%
- viability, T/C [17]: 9.14%
- viability, T/C [18]: 5.61%
- viability, T/C [19]: 31.8%
- viability, T/C [20]: 20.6%
- viability, T/C [21]: 14.7%
- viability, T/C [22]: 8.17%
- viability, T/C [23]: 7.95%
- viability, T/C [24]: 5.5%
- viability, T/C [25]: 3.16%
- viability, T/C [26]: 2.76%
- viability, T/C [27]: 2.56%
- viability, T/C [28]: 2.42%
- viability, T/C [29]: 1.78%
- viability, T/C [30]: 1.96%
